Data taken from ChEMBL document CHEMBL1275554, “Caspofungin-resistant Candida tropicalis strains causing breakthrough fungemia in patients at high risk for hematologic malignancies” (Antimicrob Agents Chemother, 2008).
Values after ≈ are worked out from the molar mass of the structure shown. *1 amine or outer side, *2 acyl side, *3 side chain or, on linkers, in order; H or OH if unused. Where a SMILES comes first, the peptide text is derived from it. Bridges are numbered along the chain shown (N, C = ends). [ ]: non-standard residue; d: D form. The star is where a group is joined. hTyr(3S-OH,4S-OH,3'-OSO3H) = N[C@H](C(=O)O)[C@H](O)[C@@H](O)c1ccc(O)c(OS(=O)(=O)O)c1; pTerphenylCO(4''-OnC5H11) = CCCCCOc1ccc(-c2ccc(-c3ccc(C(=O)*)cc3)cc2)cc1; Orn(4R-OH,5R-OH) = O=C([C@H](C[C@@H](O)[C@@H](O)N[*:3])N[*:1])[*:2]; hTyr(3S-OH,4S-OH) = N[C@H](C(=O)O)[C@H](O)[C@@H](O)c1ccc(O)cc1; Pro(3S-OH,4S-Me) = C[C@H]1CN[C@H](C(=O)O)[C@H]1O; X1 = CCCCCOc1ccc(-c2cc(-c3ccc(C(=O)*)cc3)no2)cc1; Gln(3R-OH) = NC(=O)C[C@@H](O)[C@H](N)C(=O)O; Hyp = O=C(O)[C@@H]1C[C@@H](O)CN1

What was measured:
[1] = biological target: T1, 1,3-beta-D-glucan synthase subunit 1 (Candida tropicalis, UniProt B6S6L8, S80P); assay: Inhibition of Candida tropicalis T3 blood stream isolate glucan synthase subunit FKS1p with FLTLS/PLRDP mutant at monophasic kinetics
Candida tropicalis [2] = assay: Antifungal activity against Candida tropicalis T26 blood stream isolate harboring Fks1p LLTLSLRDP mutant protein; assay type: functional
[3] = biological target: T1, 1,3-beta-D-glucan synthase subunit 1; assay: Inhibition of Candida tropicalis T19 blood stream isolate glucan synthase subunit FKS1p with FLTLS/PLRDP mutant at biphasic kinetics
[4] = Inhibition of Candida tropicalis ATCC 750 glucan synthase subunit FKS1p at monophasic kinetics
[5] = Inhibition of Candida albicans 205 glucan synthase subunit FKS1p FLTLPLRDP mutant at monophasic kinetics
Candida tropicalis [6] = assay: Antifungal activity against Candida tropicalis T19 blood stream isolate harboring Fks1p FLTLS/PLRDP mutant protein; assay type: functional
[7] = biological target: T1, 1,3-beta-D-glucan synthase subunit 1; assay: Inhibition of Candida tropicalis T3 blood stream isolate glucan synthase subunit FKS1p with FLTLS/PLRDP mutant at biphasic kinetics
Candida tropicalis [8] = assay: Antifungal activity against Candida tropicalis ATCC 750; assay type: functional
Beta-1,3-glucan synthase = biological target: T2, Beta-1,3-glucan synthase (Candida albicans, UniProt O13383); assay: Inhibition of Candida albicans ATCC 90028 glucan synthase at monophasic kinetics
T2 sequence (O13383 whole entry): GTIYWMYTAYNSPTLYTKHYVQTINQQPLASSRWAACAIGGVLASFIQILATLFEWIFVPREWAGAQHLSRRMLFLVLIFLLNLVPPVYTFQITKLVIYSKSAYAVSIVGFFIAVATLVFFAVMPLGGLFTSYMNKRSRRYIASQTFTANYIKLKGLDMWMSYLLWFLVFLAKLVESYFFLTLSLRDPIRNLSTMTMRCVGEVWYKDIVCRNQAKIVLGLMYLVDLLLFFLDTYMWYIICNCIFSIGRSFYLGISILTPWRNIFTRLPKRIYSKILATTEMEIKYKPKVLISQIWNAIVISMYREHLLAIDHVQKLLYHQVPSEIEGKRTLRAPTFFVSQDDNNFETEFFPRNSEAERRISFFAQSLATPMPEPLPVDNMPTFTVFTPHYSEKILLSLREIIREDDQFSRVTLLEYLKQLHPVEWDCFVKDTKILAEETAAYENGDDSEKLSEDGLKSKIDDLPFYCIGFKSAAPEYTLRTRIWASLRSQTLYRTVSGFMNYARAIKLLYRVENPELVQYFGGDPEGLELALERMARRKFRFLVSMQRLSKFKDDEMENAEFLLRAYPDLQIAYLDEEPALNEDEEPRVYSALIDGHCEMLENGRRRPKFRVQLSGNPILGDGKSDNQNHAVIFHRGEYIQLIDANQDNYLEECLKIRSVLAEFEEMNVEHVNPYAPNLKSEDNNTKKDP

Candida albicans [9] = assay: Antifungal activity against Candida albicans ATCC 90028; assay type: functional
Candida tropicalis [10] = assay: Antifungal activity against Candida tropicalis T3 blood stream isolate harboring Fks1p FLTLS/PLRDP mutant protein; assay type: functional
[11] = biological target: T1, 1,3-beta-D-glucan synthase subunit 1; assay: Inhibition of Candida tropicalis T19 blood stream isolate glucan synthase subunit FKS1p with FLTLS/PLRDP mutant at monophasic kinetics
Candida tropicalis [12] = assay: Antifungal activity against Candida tropicalis T7 blood stream isolate; assay type: functional
[13] = Inhibition of Candida tropicalis T7 blood stream isolate glucan synthase subunit FKS1p at monophasic kinetics
Candida albicans [14] = assay: Antifungal activity against Candida albicans 205 harboring Fks1p FLTLPLRDP mutant protein; assay type: functional
[15] = biological target: 1,3-beta-D-glucan synthase subunit 1 (Candida tropicalis, UniProt B6S6L8, F76L); assay: Inhibition of Candida tropicalis T26 blood stream isolate glucan synthase subunit FKS1p with LLTLSLRDP mutant at monophasic kinetics
Sequence of 1,3-beta-D-glucan synthase subunit 1 (Candida tropicalis, UniProt B6S6L8, F76L) (B6S6L8 entry or part of it F76L): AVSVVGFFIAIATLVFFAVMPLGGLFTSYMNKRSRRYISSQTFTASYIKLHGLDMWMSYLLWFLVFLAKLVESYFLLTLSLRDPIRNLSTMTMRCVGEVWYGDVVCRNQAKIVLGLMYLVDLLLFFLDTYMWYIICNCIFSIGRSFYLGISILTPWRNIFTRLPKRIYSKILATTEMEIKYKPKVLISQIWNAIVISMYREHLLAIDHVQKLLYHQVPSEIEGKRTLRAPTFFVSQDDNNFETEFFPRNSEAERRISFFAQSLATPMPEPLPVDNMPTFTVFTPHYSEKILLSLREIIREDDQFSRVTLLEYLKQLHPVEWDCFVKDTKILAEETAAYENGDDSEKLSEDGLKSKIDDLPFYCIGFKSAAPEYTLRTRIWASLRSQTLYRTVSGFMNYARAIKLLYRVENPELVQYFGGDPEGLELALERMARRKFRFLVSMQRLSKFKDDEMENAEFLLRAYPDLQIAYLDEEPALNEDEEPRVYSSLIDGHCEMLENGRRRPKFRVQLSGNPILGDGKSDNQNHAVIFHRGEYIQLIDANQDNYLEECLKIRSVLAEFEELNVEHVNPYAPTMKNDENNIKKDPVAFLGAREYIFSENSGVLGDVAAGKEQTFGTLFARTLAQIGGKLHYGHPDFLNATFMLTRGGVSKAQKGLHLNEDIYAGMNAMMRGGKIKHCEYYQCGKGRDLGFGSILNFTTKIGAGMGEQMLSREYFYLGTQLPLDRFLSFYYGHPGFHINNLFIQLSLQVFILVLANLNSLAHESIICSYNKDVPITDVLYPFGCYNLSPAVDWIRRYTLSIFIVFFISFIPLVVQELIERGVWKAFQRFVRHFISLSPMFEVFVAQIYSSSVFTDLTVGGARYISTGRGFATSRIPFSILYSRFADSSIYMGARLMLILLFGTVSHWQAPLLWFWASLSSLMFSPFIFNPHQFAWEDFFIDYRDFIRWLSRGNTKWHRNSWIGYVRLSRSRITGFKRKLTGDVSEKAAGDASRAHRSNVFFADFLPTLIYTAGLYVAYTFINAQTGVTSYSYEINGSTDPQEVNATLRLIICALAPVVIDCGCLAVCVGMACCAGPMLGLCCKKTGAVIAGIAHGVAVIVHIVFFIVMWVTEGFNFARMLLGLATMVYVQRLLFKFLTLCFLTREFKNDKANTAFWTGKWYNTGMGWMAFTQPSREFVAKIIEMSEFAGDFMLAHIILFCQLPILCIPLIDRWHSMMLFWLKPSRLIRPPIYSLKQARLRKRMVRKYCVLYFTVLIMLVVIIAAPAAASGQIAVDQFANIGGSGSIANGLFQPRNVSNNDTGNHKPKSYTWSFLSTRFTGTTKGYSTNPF

T1 sequence (B6S6L8 entry or part of it S80P): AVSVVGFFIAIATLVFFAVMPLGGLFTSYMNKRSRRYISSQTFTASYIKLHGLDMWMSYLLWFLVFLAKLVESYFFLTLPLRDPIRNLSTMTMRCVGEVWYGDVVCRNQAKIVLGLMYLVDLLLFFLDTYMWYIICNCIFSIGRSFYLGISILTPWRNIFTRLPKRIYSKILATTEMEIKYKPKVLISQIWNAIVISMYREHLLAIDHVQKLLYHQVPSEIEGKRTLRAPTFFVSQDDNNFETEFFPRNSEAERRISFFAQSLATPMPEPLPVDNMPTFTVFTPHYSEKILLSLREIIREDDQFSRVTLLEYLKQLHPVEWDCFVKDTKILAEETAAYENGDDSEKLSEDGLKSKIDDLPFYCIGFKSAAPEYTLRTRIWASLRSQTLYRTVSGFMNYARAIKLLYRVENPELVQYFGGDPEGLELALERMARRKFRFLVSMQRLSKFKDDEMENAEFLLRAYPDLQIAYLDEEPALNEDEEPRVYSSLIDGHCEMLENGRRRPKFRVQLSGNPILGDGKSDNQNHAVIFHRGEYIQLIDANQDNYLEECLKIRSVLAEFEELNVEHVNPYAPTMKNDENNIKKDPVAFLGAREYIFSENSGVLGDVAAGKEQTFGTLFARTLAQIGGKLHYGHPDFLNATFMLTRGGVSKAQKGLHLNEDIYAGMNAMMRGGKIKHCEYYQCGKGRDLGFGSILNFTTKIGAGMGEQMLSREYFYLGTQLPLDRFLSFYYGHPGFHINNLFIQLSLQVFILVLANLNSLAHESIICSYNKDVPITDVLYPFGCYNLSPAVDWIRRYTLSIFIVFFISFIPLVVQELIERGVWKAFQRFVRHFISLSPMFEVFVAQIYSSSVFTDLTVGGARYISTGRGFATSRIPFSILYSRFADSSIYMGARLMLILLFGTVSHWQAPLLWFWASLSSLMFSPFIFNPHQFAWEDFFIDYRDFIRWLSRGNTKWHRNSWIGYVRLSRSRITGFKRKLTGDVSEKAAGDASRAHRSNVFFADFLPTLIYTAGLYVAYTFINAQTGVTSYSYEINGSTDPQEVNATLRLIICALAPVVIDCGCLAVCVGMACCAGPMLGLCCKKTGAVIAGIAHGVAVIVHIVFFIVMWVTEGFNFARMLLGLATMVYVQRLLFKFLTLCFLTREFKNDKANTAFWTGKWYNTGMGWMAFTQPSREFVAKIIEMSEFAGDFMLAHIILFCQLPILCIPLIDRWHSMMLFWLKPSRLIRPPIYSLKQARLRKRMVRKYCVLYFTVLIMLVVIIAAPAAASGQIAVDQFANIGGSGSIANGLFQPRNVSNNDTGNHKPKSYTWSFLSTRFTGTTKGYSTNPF

SMILES | IC50 [1] [nM] | MIC (Candida tropicalis [2]) [µg/mL] | IC50 [3] [nM] | IC50 [4] [ng/mL] | IC50 [5] [ng/mL] | MIC (Candida tropicalis [6]) [µg/mL] | IC50 [7] [nM] | MIC (Candida tropicalis [8]) [µg/mL] | IC50 (Beta-1,3-glucan synthase) [nM] | MIC (Candida albicans [9]) [µg/mL] | MIC (Candida tropicalis [10]) [µg/mL] | IC50 [11] [nM] | MIC (Candida tropicalis [12]) [µg/mL] | IC50 [13] [ng/mL] | MIC (Candida albicans [14]) [µg/mL] | IC50 [15] [nM]
CCCCCOc1ccc(-c2ccc(-c3ccc(C(=O)N[C@H]4C[C@@H](O)[C@@H](O)NC(=O)[C@@H]5[C@@H](O)[C@@H](C)CN5C(=O)[C@H]([C@@H](C)O)NC(=O)[C@H]([C@H](O)[C@@H](O)c5ccc(O)cc5)NC(=O)[C@@H]5C[C@@H](O)CN5C(=O)[C@H]([C@@H](C)O)NC4=O)cc3)cc2)cc1 [ANIDULAFUNGIN] ({pTerphenylCO(4''-OnC5H11)}-[Orn(4R-OH,5R-OH)]T[Hyp][hTyr(3S-OH,4S-OH)]T[Pro(3S-OH,4S-Me)]; lactam 1-C) | 0.281 | 0.5 (≈ 0.438 µM) | 357 | 4.661 (≈ 0.00409 µM) | 989 (≈ 0.867 µM) | 1 (≈ 0.877 µM) | 205 | 0.06 (≈ 0.0526 µM) | 1.6 | 0.03 (≈ 0.0263 µM) | 2 (≈ 1.75 µM) | 0.503 | 0.12 (≈ 0.105 µM) | 2.689 (≈ 0.00236 µM) | 2 (≈ 1.75 µM) | 27.7
CC[C@H](C)C[C@H](C)CCCCCCCCC(=O)N[C@H]1C[C@@H](O)[C@@H](NCCN)NC(=O)[C@@H]2[C@@H](O)CCN2C(=O)[C@H]([C@H](O)CCN)NC(=O)[C@H]([C@H](O)[C@@H](O)c2ccc(O)cc2)NC(=O)[C@@H]2C[C@@H](O)CN2C(=O)[C@H]([C@@H](C)O)NC1=O [CASPOFUNGIN] | 0.28 | 1 (≈ 0.915 µM) | 241 | 2.331 (≈ 0.00213 µM) | 245.4 (≈ 0.224 µM) | 4 (≈ 3.66 µM) | 338 | 0.25 (≈ 0.229 µM) | 0.457 | 0.12 (≈ 0.11 µM) | 4 (≈ 3.66 µM) | 0.271 | 0.5 (≈ 0.457 µM) | 7.652 (≈ 0.007 µM) | 8 (≈ 7.32 µM) | 70.3
OC(Cn1cncn1)(Cn1cncn1)c1ccc(F)cc1F [FLUCONAZOLE] |  | 0.5 (≈ 1.63 µM) |  |  |  | 32 (≈ 104 µM) |  |  |  |  | 8 (≈ 26.1 µM) |  | 0.25 (≈ 0.816 µM) |  |  | 
CCC(C)n1ncn(-c2ccc(N3CCN(c4ccc(OCC5COC(Cn6cncn6)(c6ccc(Cl)cc6Cl)O5)cc4)CC3)cc2)c1=O (stereo not drawn) [ITRACONAZOLE] |  | 0.125 (≈ 0.177 µM) |  |  |  | 1 (≈ 1.42 µM) |  |  |  |  | 0.5 (≈ 0.709 µM) |  | 0.25 (≈ 0.354 µM) |  |  | 
CCCCCOc1ccc(-c2cc(-c3ccc(C(=O)N[C@H]4C[C@@H](O)[C@@H](O)NC(=O)[C@@H]5[C@@H](O)[C@@H](C)CN5C(=O)[C@H]([C@H](O)CC(N)=O)NC(=O)[C@H]([C@H](O)[C@@H](O)c5ccc(O)c(OS(=O)(=O)O)c5)NC(=O)[C@@H]5C[C@@H](O)CN5C(=O)[C@H]([C@@H](C)O)NC4=O)cc3)no2)cc1 [MICAFUNGIN] (X1-[Orn(4R-OH,5R-OH)]T[Hyp][hTyr(3S-OH,4S-OH,3'-OSO3H)][Gln(3R-OH)][Pro(3S-OH,4S-Me)]; lactam 1-C) | 0.117 | 0.5 (≈ 0.394 µM) | 223 | 7.545 (≈ 0.00594 µM) | 1085 (≈ 0.854 µM) | 2 (≈ 1.57 µM) | 228 | 0.06 (≈ 0.0472 µM) | 14.8 | 0.03 (≈ 0.0236 µM) | 2 (≈ 1.57 µM) |  | 0.06 (≈ 0.0472 µM) | 6.168 (≈ 0.00486 µM) | 4 (≈ 3.15 µM) | 59.6
CC[C@@H]([C@H](C)O)n1ncn(-c2ccc(N3CCN(c4ccc(OC[C@@H]5CO[C@@](Cn6cncn6)(c6ccc(F)cc6F)C5)cc4)CC3)cc2)c1=O [POSACONAZOLE] |  | 0.06 (≈ 0.0856 µM) |  |  |  | 1 (≈ 1.43 µM) |  |  |  |  | 0.25 (≈ 0.357 µM) |  | 0.25 (≈ 0.357 µM) |  |  | 
C[C@@H](c1ncncc1F)[C@](O)(Cn1cncn1)c1ccc(F)cc1F [VORICONAZOLE] |  | 0.03 (≈ 0.0859 µM) |  |  |  | 2 (≈ 5.73 µM) |  |  |  |  | 1 (≈ 2.86 µM) |  | 0.06 (≈ 0.172 µM) |  |  | 
